# Results reported in patent publication US7807721B2, “Compositions for inhibiting the scent tracking ability of mosquitoes in environmentally defined three dimensional spaces” (Biosensory Inc., priority 1999, dated 2010).
# Legend:
# Format in all cases: in vivo
# [1] = tested on: adult female Aedes aegypti mosquitoes; experiment: Dual-port olfactometer tests of Example 2: test compound + CS vs CS, and Deet vs inhibitor
# Description: (§1) A triple cage, dual-port olfactometer, illustrated and described in detail by Posey et al. J. Med. Entomol. 35(3), 330-334 (1998), was used to study the responses of 6 to 8 day old, laboratory-reared adult female Aedes aegypti mosquitoes. This system allows mosquitoes to choose between two different stimuli. The olfactometer is constructed of clear acrylic, comprises three test chambers in a tiered configuration, has paired removable sleeves, and mosquito traps on each chamber, and is equipped with a filtered external air supply system that allows precise temperature (+/−0.5° C.) and relative humidity (+/−2%) control. Only one chamber at a time was used for the tests. Outside air was conditioned prior to entry through the choice ports, the mosquito trap, and the olfactometer by passing through a series of charcoal filters and then heated and humidified, if necessary. One hour before initiation of tests, about 75 female Ae. aegypti mosquitoes were aspirated into the olfactometer chamber and allowed to acclimatize for that one hour before testing. Test compounds were placed into test ports upwind of the traps and olfactometer chamber. A completely randomized design was used for cage position. Competitive tests were conducted. In these competitive tests, the inhibiting compound was placed into one of the ports (treatment port); the second port (check port) had the same apparatus but no chemical inhibiting compound. In these tests, inhibiting compounds were presented in glass Pyrex petri dishes (60×15 mm) that had been cleaned and sterilized in a vacuum oven and then handled only with gloves to minimize any chance of contamination and placed into one port (Treatment Port) along with another petri dish containing 500 μL of Clara Sludge (CS), a synthetic human attractant. The other port (Check Port) contained an untreated petri with no inhibiting compound and a second petri dish containing 500 μL CS. Various concentrations (25, 100, 250, 500 and 1000 μL) of the compounds were used in these tests. Each test was conducted for a period of 3 minutes; the number of mosquitoes trapped in the baited ports, and those remaining in the cage, were counted. The data are then presented as a percentage of total mosquitoes in the cage that were attracted to each port and the percentage of mosquitoes remaining in the cage (i.e., not attracted to either port). Tests identical to that described in Example 1 were conducted with test compounds when employed together with the synthetic human attractant (CS) in a port. The test combinations were: • (1) CS vs. CS (comparison) • (2) dehydrolinalool+CS vs. CS • (3) linalool+CS vs. CS Also for comparison purposes, a known topical mosquito repellent, Deet, namely N,N-diethyl-3-methylbenzamide, was employed to compare to linalool and to dehydrolinalool. Each test compound was tested at 100, 250 and 500 μL. The results are again presented as percent mosquitoes attracted to Ports 1 or 2 or not attracted to either port.
# [2] = tested on: adult female Aedes aegypti mosquitoes; experiment: Competitive tests in triple cage, dual-port olfactometer: inhibitor + Clara Sludge (CS) human attractant port vs CS-only port; settings: for % Mosquitoes Entering Treatment Port (Inhibitor Port): 3 min test; for % Mosquitoes Entering Control Port (Human Scent Port): control port 500 μL CS only; for % Mosquitoes Entering Control Port (Human Scent Port) / % Mosquitoes Remaining in Cage: 3 min; for inhibition of the ability of mosquitoes to locate the human scent (CS): all tested concentration levels (25-1000 μL)
# Description: as §1, with “port).” for “port). Tests identical to that described in Example 1 were conducted with test compounds when employed together with the synthetic human attractant (CS) in a port. The test combinations were: • (1) CS vs. CS (comparison) • (2) dehydrolinalool+CS vs. CS • (3) linalool+CS vs. CS Also for comparison purposes, a known topical mosquito repellent, Deet, namely N,N-diethyl-3-methylbenzamide, was employed to compare to linalool and to dehydrolinalool. Each test compound was tested at 100, 250 and 500 μL. The results are again presented as percent mosquitoes attracted to Ports 1 or 2 or not attracted to either port.”
# Culex nigripalpus = experiment: Field test, mosquito landing counts on human subject in open area surrounded by linalool dispensers
# Description: In a further test of the inhibiting ability of the compounds of this invention, the following field test was conducted using linalool as the inhibiting compound. The study was conducted on a site adjacent to a wooded wetland breeding area in Sarasota, Fla. A trap baited with 200 ml/min CO2, equivalent to the respiration of a 91 kg (200 lb) man, ran continuously each night as an experimental control. The trap collections were first used to count the mosquito population and were then examine to identify the species present. The mosquito population was about 91% Culex nigripalpus, the St. Louis encephalitis vector in Florida.
# The experimental design was a 2×2 Latin Square. Tests were conducted in two open areas 24 meters (80 feet) apart labeled Locations 1 and 2. Each area was 2.4 meters×2.4 meters (8 ft×8 ft), i.e., 5.76 m^2 (64 ft^2). Wooden poles 1.38 meters (4.5 feet) high and having inhibiting compound dispensers thereon were driven into the ground at the corners of the square area. On alternate nights, one area was unprotected by inhibiting compound while the other area had inhibiting compound dispensed from the dispenser. In operation, the dispenser emitted linalool inhibitor having 95% active ingredient at a rate of 20 mg/hr to 40 mg/hr.
# Landing counts were taken from the arms, legs and torso of a test subject known to be moderately attractive to mosquitoes who was seated in the center of the square area. At 15-minute intervals over a period of 2 to 3 hours during peak mosquito activity, the subject changed position, alternating between Locations 1 and 2. […] Mosquitoes were killed to prevent double counting.
# On some cue, they emerge en masse from the wooded wetland and fan out in a radial direction foraging for blood hosts. The period of peak activity is evidenced by a sharp increase in landing counts followed by a sharp decrease as the wave of outbound mosquitoes passes the test location. This behavior introduces two variables that must be taken into account. The first affects the experimental design and the second affects the interpretation of the results. […]
# [3] = 100 micro liter, Port 1 Deet vs Port 2 dehydrolinalool
# [4] = 100 micro liter, Port 1 Deet vs Port 2 linalool
# [5] = 250 micro liter, Port 1 Deet vs Port 2 dehydrolinalool
# [6] = 250 micro liter, Port 1 Deet vs Port 2 linalool
# [7] = 500 micro liter, Port 1 Deet vs Port 2 dehydrolinalool
# [8] = 500 micro liter, Port 1 Deet vs Port 2 linalool
# [9] = 25 micro liter test compound + 500 μL CS in treatment port
# [10] = 25 micro liter test compound in treatment port
# [11] = 100 micro liter test compound + 500 μL CS in treatment port
# [12] = 100 micro liter test compound in treatment port
# [13] = 250 micro liter test compound + 500 μL CS in treatment port
# [14] = 250 micro liter test compound in treatment port
# [15] = 500 micro liter test compound + 500 μL CS in treatment port
# [16] = 500 micro liter test compound in treatment port
# [17] = 1000 micro liter test compound + 500 μL CS in treatment port
# [18] = 1000 micro liter test compound in treatment port
# [19] = 100 micro liter, Port 1 test compound vs Port 2 human scent
# [20] = 250 micro liter, Port 1 test compound vs Port 2 human scent
# [21] = 500 micro liter, Port 1 test compound vs Port 2 human scent
SMILES,"% Mosquitoes Remaining in Cage [1, 3] [%]","% Mosquitoes Remaining in Cage [1, 4] [%]","% Mosquitoes Remaining in Cage [1, 5] [%]","% Mosquitoes Remaining in Cage [1, 6] [%]","% Mosquitoes Remaining in Cage [1, 7] [%]","% Mosquitoes Remaining in Cage [1, 8] [%]","% Mosquitoes Entering Treatment Port (Inhibitor Port) [2, 9] [%]","% Mosquitoes Entering Control Port (Human Scent Port) [2, 10] [%]",% Mosquitoes Remaining in Cage ([2]; 25 micro liter test compound) [%],"% Mosquitoes Entering Treatment Port (Inhibitor Port) [2, 11] [%]","% Mosquitoes Entering Control Port (Human Scent Port) [2, 12] [%]",% Mosquitoes Remaining in Cage ([2]; 100 micro liter test compound) [%],"% Mosquitoes Entering Treatment Port (Inhibitor Port) [2, 13] [%]","% Mosquitoes Entering Control Port (Human Scent Port) [2, 14] [%]",% Mosquitoes Remaining in Cage ([2]; 250 micro liter test compound) [%],"% Mosquitoes Entering Treatment Port (Inhibitor Port) [2, 15] [%]","% Mosquitoes Entering Control Port (Human Scent Port) [2, 16] [%]",% Mosquitoes Remaining in Cage ([2]; 500 micro liter test compound) [%],"% Mosquitoes Entering Treatment Port (Inhibitor Port) [2, 17] [%]","% Mosquitoes Entering Control Port (Human Scent Port) [2, 18] [%]",further results
"CCN(CC)C(=O)c1cccc(C)c1 [Deet, N,N-diethyl-3-methylbenzamide, reference compound]",19.8,26.2,29.2,26.2,27.6,27.3,,,,,,,,,,,,,,,"% Mosquitoes Entering Port 1 (Deet) [1, 3]: 60.1%; % Mosquitoes Entering Port 1 (Deet) [1, 4]: 56.3%; % Mosquitoes Entering Port 1 (Deet) [1, 5]: 48.8%; % Mosquitoes Entering Port 1 (Deet) [1, 6]: 48.1%; % Mosquitoes Entering Port 1 (Deet) [1, 7]: 42.1%; % Mosquitoes Entering Port 1 (Deet) [1, 8]: 49.5%"
"C#CC(C)(O)CCC=C(C)C (centres unmarked) [Dehydrolinalool, dehydrolinalool]",19.8,,29.2,,27.6,,30.23,50.77,19,31.13,53.87,15,22.6,44.6,32.8,24.8,56.47,24.18,26.11,42.76,"% Mosquitoes Remaining in Cage ([2]; 1000 micro liter test compound): 27.12%; inhibition of the ability of mosquitoes to locate the human scent (CS) [2]: greatly inhibit; % Mosquitoes Entering Port 2 (dehydrolinalool) [1, 3]: 20.1%; % Mosquitoes Entering Port 1 (test compound + CS) [1, 19]: 18.1%; % Mosquitoes Entering Port 2 (human scent) [1, 19]: 63%; % Mosquitoes Remaining in Cage [1, 19]: 18.9%; % Mosquitoes Entering Port 2 (dehydrolinalool) [1, 5]: 22.5%; % Mosquitoes Entering Port 1 (test compound + CS) [1, 20]: 20.1%; % Mosquitoes Entering Port 2 (human scent) [1, 20]: 59.2%; % Mosquitoes Remaining in Cage [1, 20]: 20.6%; % Mosquitoes Entering Port 2 (dehydrolinalool) [1, 7]: 30.3%; % Mosquitoes Entering Port 1 (test compound + CS) [1, 21]: 20.6%; % Mosquitoes Entering Port 2 (human scent) [1, 21]: 55.5%; % Mosquitoes Remaining in Cage [1, 21]: 23.9%"
"C=CC(C)(O)CCC=C(C)C (centres unmarked) [Linalool, linalool]",,26.2,,26.2,,27.3,21.98,56.89,21.14,31.3,45.61,23.08,16.57,47.3,36.13,16.13,44.56,39.31,27.24,44.14,"% Mosquitoes Remaining in Cage ([2]; 1000 micro liter test compound): 31.3%; inhibition of the ability of mosquitoes to locate the human scent (CS) [2]: greatly inhibit; % Mosquitoes Entering Port 2 (linalool) [1, 4]: 17.5%; % Mosquitoes Entering Port 1 (test compound + CS) [1, 19]: 22.5%; % Mosquitoes Entering Port 2 (human scent) [1, 19]: 50.7%; % Mosquitoes Remaining in Cage [1, 19]: 26.8%; % Mosquitoes Entering Port 2 (linalool) [1, 6]: 25.7%; % Mosquitoes Entering Port 1 (test compound + CS) [1, 20]: 14.9%; % Mosquitoes Entering Port 2 (human scent) [1, 20]: 56.8%; % Mosquitoes Remaining in Cage [1, 20]: 28.4%; % Mosquitoes Entering Port 2 (linalool) [1, 8]: 23.1%; % Mosquitoes Entering Port 1 (test compound + CS) [1, 21]: 25.7%; % Mosquitoes Entering Port 2 (human scent) [1, 21]: 55.6%; % Mosquitoes Remaining in Cage [1, 21]: 18.7%; reduction of mosquito landing counts, average (Culex nigripalpus; average over the three trials, linalool dispensed at 20 mg/hr to 40 mg/hr, human subject, 64 ft^2 area): 53%; reduction of landings (Culex nigripalpus; morning trial (7:00 AM to 9:00 AM) when mosquito activity was light): 73%; landings on human subject (Culex nigripalpus; subject surrounded by linalool dispensed from the dispensers (unprotected: 286 landings)): 135 landings"
